Reference: publication PMC3992280 (Biochimica et biophysica acta, 2014)
Converted amounts (≈) assume the structure as drawn. Where two headings read alike, the source gives them in different places.

Experiments:
[1] = system: Mycobacterium smegmatis strain mc^2155; test: microbe, parasite or virus in culture; format: cell-based; conditions: for MIC: Mycolicibacterium smegmatis, MC^2155, 120 h; for resistance factor R (MICwt/MICmutant): mc^2155 versus RHS 234
[2] = Autoxidation of rifamycins in phosphate buffer; format: physicochemical; conditions: for spectral changes under autoxidizing conditions: phosphate buffer pH 7.3, trace metals, up to 24 h
[3] = system: Mycobacterium smegmatis strain RHS 234; format: cell-based; conditions: Mycolicibacterium smegmatis, RHS234, 120 h
[4] = in vivo; cited from earlier work
serum albumin = conditions: cited from earlier work
CYP3A4 = conditions: cited from earlier work
[5] = in vivo; cited from earlier work; remark: listed apart in the source
tear lipocalin [6] = target: T1, tear lipocalin (Homo sapiens, UniProt P31025); test: Rifamycin binding to tear lipocalin; conditions: increase in binding affinity to tear lipocalin
tear lipocalin [7] = target: T1, tear lipocalin; conditions: read-out: Kd for tear lipocalin; known dissociation constant; cited from earlier work
tear lipocalin [8] = target: T1, tear lipocalin; test: Protection from oxidation of rifamycins by tear lipocalin; format: physicochemical; conditions: tear lipocalin 100 μM; for oxidation by K3Fe(CN)6 after initial protection with tear lipocalin: K3Fe(CN)6 90 μM added after 180 min; for duration of protection from autoxidation by tear lipocalin: drug 15 μM, pH 7.3
[9] = monitored at 475 nm; cited from earlier work
[10] = system: Mycobacterium tuberculosis; conditions: M. tuberculosis; cited from earlier work
Staphylococcus aureus = conditions: in mice; cited from earlier work

T1 sequence (P31025 19-176): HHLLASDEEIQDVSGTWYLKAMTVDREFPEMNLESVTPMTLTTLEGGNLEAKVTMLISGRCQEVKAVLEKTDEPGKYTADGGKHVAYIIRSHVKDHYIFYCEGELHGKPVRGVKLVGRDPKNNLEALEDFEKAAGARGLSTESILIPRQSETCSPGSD

Compound | MIC [1] | spectral changes under autoxidizing conditions [2] | MIC [3] | oxidation by K3Fe(CN)6 after initial protection with tear lipocalin (tear lipocalin [8]) | duration of protection from autoxidation by tear lipocalin (tear lipocalin [8]) | also measured
CO[C@H]1/C=C/O[C@@]2(C)Oc3c(C)c(O)c4c(c3C2=O)C2=NC3(CCN(CC(C)C)CC3)NC2=C(NC(=O)/C(C)=C\C=C\[C@H](C)[C@H](O)[C@@H](C)[C@@H](O)[C@@H](C)[C@H](OC(C)=O)[C@@H]1C)C4=O [Rifabutin] | 0.3 µM (≈ 0.254 µg/mL) | did not show spectral changes under autoxidizing conditions | 0.07 µM (≈ 0.0593 µg/mL) | – | – | –
CO[C@H]1/C=C/O[C@@]2(C)Oc3c(C)c(O)c4c(=O)c(c5oc6cc(N7CCN(CC(C)C)CC7)cc(O)c6nc-5c4c3C2=O)NC(=O)/C(C)=C\C=C\[C@H](C)[C@H](O)[C@@H](C)[C@@H](O)[C@@H](C)[C@H](OC(C)=O)[C@@H]1C [Rifalazil] | 0.13 µM (≈ 0.122 µg/mL) | did not show spectral changes under autoxidizing conditions | < 0.06 µM | – | – | side effects [4]: transient flue-symptoms, neutropenia, and thrombocytopenia; mycobactericidal activity relative to rifampin [1]: 16 times; resistance factor R (MICwt/MICmutant) [1]: 2; resistance factor R (MICwt/MICmutant) ([1]; listed as rifalazil): ≈ 2; bound to serum albumin (serum albumin; in the circulation of animals): 99%; induction of CYP3A4 (CYP3A4): Notably lacking; evidence of hepatotoxicity [5]: Notably lacking; free energy change of binding, rifalazil over rifampin (tear lipocalin [6]): about 2.4 kcal/mole
CO[C@H]1/C=C/O[C@@]2(C)Oc3c(C)c(O)c4c(O)c(c(/C=N/N5CCN(C)CC5)c(O)c4c3C2=O)NC(=O)/C(C)=C\C=C\[C@H](C)[C@H](O)[C@@H](C)[C@@H](O)[C@@H](C)[C@H](OC(C)=O)[C@@H]1C [Rifampin] | 2.43 µM (≈ 2 µg/mL) | show spectral changes under autoxidizing conditions | 0.3 µM (≈ 0.247 µg/mL) | rapidly oxidized | at least 3 h | Kd (tear lipocalin [7]): 128 µM; bound to serum albumin (serum albumin): 80-85%; spectral changes of autoxidation, completeness [9]: nearly complete after 24 h
CO[C@H]1/C=C/O[C@@]2(C)Oc3c(C)c(O)c4c(O)c(cc(O)c4c3C2=O)NC(=O)/C(C)=C\C=C\[C@H](C)[C@H](O)[C@@H](C)[C@@H](O)[C@@H](C)[C@H](OC(C)=O)[C@@H]1C [Rifamycin SV] | < 1.38 µM | show spectral changes under autoxidizing conditions | 0.69 µM (≈ 0.481 µg/mL) | appeared better protected | at least 3 h | MIC [10]: .05 µg/mL (≈ 0.0717 µM); fraction oxidized ([2]; within 30 minutes): less than 10%
CO[C@H]1/C=C/O[C@@]2(C)Oc3c(C)c(O)c4c(c3C2=O)C(=O)C=C(NC(=O)/C(C)=C\C=C\[C@H](C)[C@H](O)[C@@H](C)[C@@H](O)[C@@H](C)[C@H](OC(C)=O)[C@@H]1C)C4=O [Rifamycin S] | – | – | – | – | – | MIC [10]: .05 µg/mL (≈ 0.0719 µM); ED50 compared with rifamycin SV (Staphylococcus aureus): higher ED50, than rifamycin SV
CO[C@H]1/C=C/O[C@@]2(C)Oc3c(C)c(O)c4c(O)c(c(/C=N/N5CCN(C6CCCC6)CC5)c(O)c4c3C2=O)NC(=O)/C(C)=C\C=C\[C@H](C)[C@H](O)[C@@H](C)[C@@H](O)[C@@H](C)[C@H](OC(C)=O)[C@@H]1C [Rifapentine] | < 2.28 µM | show spectral changes under autoxidizing conditions | 0.14 µM (≈ 0.123 µg/mL) | rapidly oxidized | at least 3 h | –
CO[C@H]1/C=C/O[C@@]2(C)Oc3c(C)c(O)c4c(O)c(c5c(nc6cc(C)ccn65)c4c3C2=O)NC(=O)/C(C)=C\C=C\[C@H](C)[C@H](O)[C@@H](C)[C@@H](O)[C@@H](C)[C@H](OC(C)=O)[C@@H]1C [Rifaximin] | < 1.27 µM | did not show spectral changes under autoxidizing conditions | 0.16 µM (≈ 0.126 µg/mL) | – | – | –
